From article PMC10987949, “Inhibition of HIV-1 release by ADAM metalloproteinase inhibitors” (Frontiers in Microbiology, 2024) come the findings set out here.

Entries after “also recorded” stand apart in the source; their conditions may differ. Read-outs that look alike come from different tables or passages of the source.

Test [1] has as its system CD62L shedding. As to the kind of experiment: Soluble CD62L ELISA, unstimulated PBMC. Type of test: cell-based, human. As to conditions: Homo sapiens, PBMC, read-out: Shedding inhibition Non-stim. (ELISA stands for enzyme-linked immunosorbent assay.)
Test [2] deals with T1, recombinant ADAM10 (Homo sapiens, UniProt O14672).
T1 construct: purchased R&D systems, Inc
T1 sequence (O14672 214-748): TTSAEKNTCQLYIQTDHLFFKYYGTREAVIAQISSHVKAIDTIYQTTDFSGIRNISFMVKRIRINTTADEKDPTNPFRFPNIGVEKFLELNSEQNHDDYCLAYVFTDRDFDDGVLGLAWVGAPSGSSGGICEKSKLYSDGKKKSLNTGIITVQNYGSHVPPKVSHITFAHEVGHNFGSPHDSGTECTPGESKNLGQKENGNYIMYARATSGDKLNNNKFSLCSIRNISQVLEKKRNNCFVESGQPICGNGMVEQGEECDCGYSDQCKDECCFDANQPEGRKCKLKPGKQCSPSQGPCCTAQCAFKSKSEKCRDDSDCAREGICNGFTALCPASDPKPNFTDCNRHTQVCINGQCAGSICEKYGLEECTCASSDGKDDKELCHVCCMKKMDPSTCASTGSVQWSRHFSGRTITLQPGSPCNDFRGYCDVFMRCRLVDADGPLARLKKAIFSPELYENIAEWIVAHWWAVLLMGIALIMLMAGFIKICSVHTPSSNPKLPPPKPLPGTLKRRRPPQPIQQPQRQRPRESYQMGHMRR
As to the kind of experiment: Kinetic cleavage of fluorogenic TNF-α peptide ES003 by recombinant ADAM10. Type of test: biochemical. As to conditions: for inhibition of ADAM10 cleavage of ES003: 2 μM compound; for Ki: ES003 substrate, 4-h time point, non-linear regression, read-out: Inhibition constant Ki ADAM10. An excerpt: A fluorescence based enzymatic assay was used to measure the cleavage of fluorogenic TNF-α and L-selectin (CD62L) peptides by either recombinant ADAMs or PBMC from healthy donors. The fluorogenic substrate, synthesized by Biomatik^3, was a Dabcyl (4-(4-dimethylaminophenylazo)benzoyl)- and Edans (5-[(2-aminoethyl)amino]naphthalene-1-sulfonic acid)- conjugated 12 amino acid peptide: Dabcyl-[…]-Edans that corresponds to the extracellular membrane proximal region of CD62L. […] The cleavage was measured in a kinetic assay every 3 min for 4 h in black 96-well plates using a Synergy_h1 fluorescent plate reader (BioTek) with 340 nm excitation and 490 nm emission wavelengths. […] PBMC were stimulated with anti-CD3 antibody for 2–4 days as described above.
96-well plate with data recorded every 3 minutes for 4 hours using a Synergy_h1 fluorescent plate reader. Each enzymatic reaction contained 50 -200 ng
Figure 2B and 2C bar diagrams are generated using the
data points at 4 hour time point of the enzymatic cleavages.

Test [3] deals with HIV-1BAL. As to the kind of experiment: HIV-1BAL infection of CD8-depleted PBMC, FACS (intracellular p24, CD4, CD62L). The settings on record: for accumulation of infected CD4−/CD62L− T cells (loss of CD62L): HIV-1BAL infected cells; for effect on HIV-1BAL infection (intracellular p24): day 7 post infection, compounds at 100 μM, GI254023X at 250 μM. Type of test: cell-based.
The mark [4] stands for this setting: 10 μM compound, non-stimulated cells, ELISA.

For orientation: inhibition means the drop in the measured response relative to a control, in per cent. One may read the Ki as a measure of affinity in units of concentration, obtained from inhibition or displacement. For `CC1(C)SCCN(S(=O)(=O)c2ccc(Oc3ccncc3)cc2)[C@H]1C(=O)NO` [prinomastat], the inhibition at 10 µM in test [1] (setting [4]) is greater than 50%. For the same compound, in test [2], the “concentrations inhibiting ADAM10 enzymatic activity” value lay in the range of 20 to 50 nM; the “inhibition of ADAM10 cleavage of ES003” value is “inhibited both ADAM10 and 17”; the Ki is 2 ± 0.4 nM. For the same compound, in test [3], the “accumulation of infected CD4−/CD62L− T cells (loss of CD62L)” value (from here on “accumulation … (loss of CD62L)”) is recorded as “reduced the accumulation” and the “effect on HIV-1BAL infection (intracellular p24)” value (shortened to “effect on HIV-1BAL infection”) is recorded as “inhibited HIV-1BAL infections”.

Consider `CNC(=O)[C@H](Cc1ccccc1)NC(=O)[C@H](CC(C)C)[C@H](CSc1cccs1)C(=O)NO` [BB-94, Batimastat], for which the inhibition at 10 µM in test [1] is greater than 50%. Also, in test [2], the “concentrations inhibiting ADAM10 enzymatic activity” value lay in the range of 20 to 50 nM; the “inhibition of ADAM10 cleavage of ES003” value is “inhibited both ADAM10 and 17; also recorded: indistinguishable from that of ES003-only curve without the enzyme”. The “inhibition when added on day 3 and 5 after initiation of infection” value in test [3] (100μM, added day 0, 3, 5 post infection) is recorded as “progressive reduction in its inhibition”. Besides, in test [3], the “accumulation … (loss of CD62L)” value is listed as “reduced the accumulation” and the “effect on HIV-1BAL infection” value is recorded as “inhibited HIV-1BAL infections”.

Take `CNC(=O)[C@@H](NC(=O)[C@H](CCCc1ccccc1)[C@H](C)N(O)C=O)C(C)(C)C` [GI254023X]: the inhibition at 10 µM in test [1] (setting [4]) was in the range of 20 to 50%. Further, in test [2], the “inhibition of ADAM10 cleavage of ES003” value is “preferentially inhibited the enzymatic activity of ADAM10 compared to ADAM17” and the Ki was 11 ± 9 nM. In addition, in test [3], the “accumulation … (loss of CD62L)” value is given as “did not inhibit the accumulation” and the “effect on HIV-1BAL infection” value is reported as “fail to significantly suppress the viral infections”.
